Experimental data published in US20230131943A1, “ANTI-INFECTIVE AND ANTI-VIRAL COMPOUNDS AND COMPOSITIONS” (priority 2020, published 2023).

Key:
[1] = tested on: Staphylococcus carnosus; test: Inhibition of growth of Staphylococcus carnosus (optical density of culture); format: cell-based; settings: after 9-20 h, no compound 0.887
Experimental: (§1) Activity of substances in the inhibition of growth of bacteria. Bacteria including the species Escherichia coli, Bacillus pumilus, Salmonella sp., Micrococcus luteus and Staphylococcus carnosus are cultured in appropriate media (Luria broth for all except S. canosus). Overnight cultures are mixed with fresh medium to reach an optical density at […] of ca. 0.1 AU. These cultures are mixed with solutions of substances to be tested at concentrations ranging from 100 μM to 0.05 μM in a microtitre plate. The growth of the culture is monitored by measuring the optical density at various times after the addition of the inhibitor. Reduction in the rate of increase in optical density corresponds to an inhibition of bacterial growth. In the following tables, the activity of various of the test substances may be observed by reductions in optical density relative to untreated control cultures.

[2] = tested on: Salmonella typhimurium; test: Inhibition of growth of Salmonella typhimurium (optical density of culture); format: cell-based; settings: after 9-20 h, no compound 0.943
Experimental: as §1

[3] = tested on: SARS-CoV-2; test: SARS-CoV-2 virus production in infected CaCo2 cells (fluorescence or luminescence normalized to Hoechst); settings: for SARS-CoV-2 viral protein production in CaCo2 cells - effect of each substance at 10 μM (% of untreated): 10 μM in medium, low values indicate inhibition of viral protein production; for Fluorescence ratio: added substances at the fixed concentration indicated, CaCo2 cells, untreated = 0.2
[4] = tested on: Staphylococcus aureus Newman; test: Infection of mice by Staphylococcus aureus Newman (body weight, CFU from kidney); format: in vivo; settings: FIG. 6; mice infected with Staphylococcus aureus Newman
[5] = Dextran sulfate colitis model of inflammatory bowel disease in mice; format: in vivo, mouse; settings: FIG. 18; all doses 1.34 μmol/kg; N=8
Description: The potential efficacy of a Compound for Inflammatory bowel disease may be modeled as follows. C57 BLK6 or BALBc mice are provided with drinking water containing 2.5% or 2.8% dextran sulfate. Animals are weighed and observed for signs of intestinal disturbance daily. Signs include diarrhea or occult blood. Compound is formulated by mixing with a solution of 0.1 up to 1% citric acid depending on concentration. Compound is provided by oral gavage daily.

With `CC[C@H]1OC(=O)[C@H](C)[C@@H](O[C@H]2C[C@@](C)(OC)[C@@H](O)[C@H](C)O2)[C@H](C)[C@@H](O[C@@H]2O[C@H](C)CC(N(C)C)[C@H]2O[N+](=O)[O-])[C@](C)(O)C[C@@H](C)CN(C)[C@H](C)[C@@H](OC)[C@]1(C)O` (stereo partly drawn) [Compound E-11] the “Absorbance of culture medium at 600 nm” value ([1]; 0.8 μM) was 0.941, the “Absorbance of culture medium at 600 nm” value ([1]; 2 μM) was 0.918 and the “Absorbance of culture medium at 600 nm” value ([1]; 3 μM) was 0.890. The “Absorbance of culture medium at 600 nm” value ([1]; 6 μM) was 0.887, the “Absorbance of culture medium at 600 nm” value ([1]; 13 μM) was 0.822 and the “Absorbance of culture medium at 600 nm” value ([1]; 25 μM) was 0.819. The “Absorbance of culture medium at 600 nm” value ([1]; 50 μM) was 0.574, the “Absorbance of culture medium at 600 nm” value ([1]; 100 μM) was 0.641 and the “Absorbance of culture medium at 600 nm” value ([2]; 0.8 μM) was 0.555. The “Absorbance of culture medium at 600 nm” value ([2]; 2 μM) was 0.587, the “Absorbance of culture medium at 600 nm” value ([2]; 3 μM) was 0.623 and the “Absorbance of culture medium at 600 nm” value ([2]; 6 μM) was 0.627. For the same compound, the “Absorbance of culture medium at 600 nm” value ([2]; 13 μM) was 0.633, the “Absorbance of culture medium at 600 nm” value ([2]; 25 μM) was 0.697 and the “Absorbance of culture medium at 600 nm” value ([2]; 50 μM) was 0.650. For the same compound, the “Absorbance of culture medium at 600 nm” value ([2]; 100 μM) was 0.562 and the “SARS-CoV-2 viral protein production in CaCo2 cells - effect of each substance at 10 μM (% of untreated)” value [3] was 32 % of untreated.

In the case of `CCC(=O)O[C@@H]1[C@@H](C)N(C)C[C@H](C)C[C@@](C)(O)[C@H](O[C@@H]2O[C@H](C)CC(N(C)C)[C@H]2O)[C@@H](C)[C@H](O[C@H]2C[C@@](C)(OC)[C@@H](O)[C@H](C)O2)[C@@H](C)C(=O)O[C@H](CC)[C@@]1(C)O` (stereo partly drawn) [Compound E-18], the “SARS-CoV-2 viral protein production in CaCo2 cells - effect of each substance at 10 μM (% of untreated)” value [3] is reported as 49 % of untreated.

In the case of `CC[C@H]1OC(=O)[C@H](C)[C@@H](O[C@H]2C[C@@](C)(OC)[C@@H](O)[C@H](C)O2)[C@H](C)[C@@H](O[C@@H]2O[C@H](C)C[C@H](N(C)C)[C@H]2O)[C@](C)(O)C[C@@H](C)CN(C)[C@H](C)[C@@H](O)[C@]1(C)O` [Azithromycin, reference compound], the “Bacteria quantified as CFU recovered from a standard sample of kidney” value [4] is reported as “decreases recovered bacteria in a dose responsive manner”.

In the case of `CC[C@H]1OC(=O)[C@H](C)[C@@H](O)[C@H](C)[C@@H](O[C@@H]2O[C@H](C)C[C@H](NC)[C@H]2O)[C@](C)(O)C[C@@H](C)CN(C)[C@H](C)[C@@H](O)[C@]1(C)O` [Compound A-25, (2R,3S,4R,5R,8R,10R,11R,12S,13S, 14R)-2-ethyl-3,4,10,13-tetrahydroxy-11-(((2S,3R,4S,6R)-3-hydroxy-6-methyl-4-(methylamino)tetrahydro-2H-pyran-2-yl)oxy)-3,5,6,8,10,12,14-heptamethyl-1-oxa-6-azacyclopentadecan-15-one], the “SARS-CoV-2 viral protein production in CaCo2 cells - effect of each substance at 10 μM (% of untreated)” value [3] is reported as 34 % of untreated.

In the case of `CCCC(=O)O[C@@H]1C(N(C)C)C[C@@H](C)O[C@H]1O[C@@H]1[C@@H](C)[C@H](O[C@H]2C[C@@](C)(OC)[C@@H](O)[C@H](C)O2)[C@@H](C)C(=O)O[C@H](CC)[C@@](C)(O)[C@H](O)[C@@H](C)N(C)C[C@H](C)C[C@@]1(C)O` (stereo partly drawn) [Compound E-19], the “SARS-CoV-2 viral protein production in CaCo2 cells - effect of each substance at 10 μM (% of untreated)” value [3] is reported as 34 % of untreated.

For `CCCN(CCO)CC(O)CN(C)[C@H]1C[C@@H](C)O[C@@H](O[C@@H]2[C@@H](C)[C@H](O[C@H]3C[C@@](C)(OC)[C@@H](O)[C@H](C)O3)[C@@H](C)C(=O)O[C@H](CC)[C@@](C)(O)[C@H](O)[C@@H](C)N(C)C[C@H](C)C[C@@]2(C)O)[C@@H]1O` (stereo partly drawn) [Compound A-24, (2R,3S,4R,5R,8R,10R,11R,12S,13S, 14R)-2-ethyl-3,4,10-trihydroxy-11-(((2S,3R,4R,6R)-3-hydroxy-4-((2-hydroxy-3-((2-hydroxyethyl)(propyl)amino)propyl) (methyl)amino)-6-methyltetrahydro-2H-pyran-2-yl)oxy)-13-(((2R,4R,58,6S)-5-hydroxy-4-methoxy-4,6-dimethyltetrahydro-2H-pyran-2-yl)oxy)-3,5,6,8,10,12,14-heptamethyl-1-oxa-6-azacyclopentadecan-15-one], the “SARS-CoV-2 viral protein production in CaCo2 cells - effect of each substance at 10 μM (% of untreated)” value [3] was 35 % of untreated.

`CN(C)C(=O)COC(=O)Cc1ccc(OC(=O)c2ccc(NC(=N)N)cc2)cc1` [Camostat, reference compound] gave a Fluorescence ratio ([3]; 0.312 μM of the (first named) compound) of 0.09, a Fluorescence ratio ([3]; 0.625 μM of the (first named) compound) of 0.08 and a Fluorescence ratio ([3]; 1.25 μM of the (first named) compound) of 0.01. The Fluorescence ratio ([3]; 2.5 μM of the (first named) compound) was 0.03, the Fluorescence ratio ([3]; 5 μM of the (first named) compound) was 0.07 and the “SARS-CoV-2 viral protein production in CaCo2 cells - effect of each substance at 10 μM (% of untreated)” value [3] was 2 % of untreated. The Fluorescence ratio ([3]; 10 μM of the (first named) compound) was 0.02.

In the case of `CC[C@H]1OC(=O)[C@H](C)[C@@H](O[C@@H]2O[C@@H](C)[C@@H](OC(C)=O)[C@@H](OC(C)=O)[C@@H]2OC(C)=O)[C@H](C)[C@@H](O[C@@H]2O[C@H](C)C[C@H](N(C)C)[C@H]2O)[C@](C)(O)C[C@@H](C)CN(C)[C@H](C)[C@@H](O)[C@]1(C)O` [Compound A-23, 3-descladinosyl-3-triacetylfucosylazithromycin], the “SARS-CoV-2 viral protein production in CaCo2 cells - effect of each substance at 10 μM (% of untreated)” value [3] is reported as 44 % of untreated.

For `CC[C@H]1OC(=O)[C@H](C)[C@@H](O[C@H]2C[C@@](C)(OC)[C@@H](O)[C@H](C)O2)[C@H](C)[C@@H](O[C@@H]2O[C@H](C)CC(N(C)C)[C@H]2O)[C@](C)(O)C[C@@H](C)CN(C)[C@H](C)[C@@H](O[N+](=O)[O-])[C@]1(C)O` (stereo partly drawn) [Compound E-10], the “Absorbance of culture medium at 600 nm” value ([1]; 0.8 μM) was 0.862, the “Absorbance of culture medium at 600 nm” value ([1]; 2 μM) was 0.826 and the “Absorbance of culture medium at 600 nm” value ([1]; 3 μM) was 0.768. For the same compound, the “Absorbance of culture medium at 600 nm” value ([1]; 6 μM) was 0.699, the “Absorbance of culture medium at 600 nm” value ([1]; 13 μM) was 0.702 and the “Absorbance of culture medium at 600 nm” value ([1]; 25 μM) was 0.595. For the same compound, the “Absorbance of culture medium at 600 nm” value ([1]; 50 μM) was 0.433, the “Absorbance of culture medium at 600 nm” value ([1]; 100 μM) was 0.576 and the “Absorbance of culture medium at 600 nm” value ([2]; 0.8 μM) was 0.334. The “Absorbance of culture medium at 600 nm” value ([2]; 2 μM) was 0.361, the “Absorbance of culture medium at 600 nm” value ([2]; 3 μM) was 0.402 and the “Absorbance of culture medium at 600 nm” value ([2]; 6 μM) was 0.382. The “Absorbance of culture medium at 600 nm” value ([2]; 13 μM) was 0.399, the “Absorbance of culture medium at 600 nm” value ([2]; 25 μM) was 0.390 and the “Absorbance of culture medium at 600 nm” value ([2]; 50 μM) was 0.315. The “Absorbance of culture medium at 600 nm” value ([2]; 100 μM) was 0.280.

With `CCCCCCCCCCN(C)C1C[C@@H](C)O[C@@H](O[C@@H]2[C@@H](C)[C@H](O[C@H]3C[C@@](C)(OC)[C@@H](O[N+](=O)[O-])[C@H](C)O3)[C@@H](C)C(=O)O[C@H](CC)[C@@](C)(O)[C@H](O)[C@@H](C)N(C)C[C@H](C)C[C@@]2(C)O)[C@@H]1O` (stereo partly drawn) [Compound E-3] the “Body weight and clinical score of BALBc mice at day 9 after commencing 2.5% DSS in water” value [5] was “stimulate inflammation”.

With `CC[C@H]1OC(=O)[C@H](C)[C@@H](O[C@H]2C[C@@](C)(OC)[C@@H](O[N+](=O)[O-])[C@H](C)O2)[C@H](C)[C@@H](O[C@@H]2O[C@H](C)C[C@H](N(C)C)[C@H]2O)[C@](C)(O)C[C@@H](C)CN(C)[C@H](C)[C@@H](O)[C@]1(C)O` [Compound E-1, (2S,3S,4R,6R)-6-(((2R,3S,4R,5R,8R,10R,11R,12S,13S, 14R)-11-(((2S,3R,4S,6R)-4-(dimethylamino)-3-hydroxy-6-methyltetrahydro-2H-pyran-2-yl)oxy)-2-ethyl-3,4,10-trihydroxy-3,5,6,8,10,12,14-heptamethyl-15-oxo-1-oxa-6-azacyclopentadecan-13-yl)oxy)-4-methoxy-2,4-dimethyltetrahydro-2H-pyran-3-yl nitrate] the “Absorbance of culture medium at 600 nm” value ([1]; 0.8 μM) was 0.902, the “Absorbance of culture medium at 600 nm” value ([1]; 2 μM) was 0.856 and the “Absorbance of culture medium at 600 nm” value ([1]; 3 μM) was 0.864. For the same compound, the “Absorbance of culture medium at 600 nm” value ([1]; 6 μM) was 0.625, the “Absorbance of culture medium at 600 nm” value ([1]; 13 μM) was 0.068 and the “Absorbance of culture medium at 600 nm” value ([1]; 25 μM) was 0.078. The “Absorbance of culture medium at 600 nm” value ([1]; 50 μM) was 0.096, the “Absorbance of culture medium at 600 nm” value ([1]; 100 μM) was 0.157 and the “Absorbance of culture medium at 600 nm” value ([2]; 0.8 μM) was 0.722. The “Absorbance of culture medium at 600 nm” value ([2]; 2 μM) was 0.761, the “Absorbance of culture medium at 600 nm” value ([2]; 3 μM) was 0.711 and the “Absorbance of culture medium at 600 nm” value ([2]; 6 μM) was 0.741. The “Absorbance of culture medium at 600 nm” value ([2]; 13 μM) was 0.722, the “Absorbance of culture medium at 600 nm” value ([2]; 25 μM) was 0.736 and the “Absorbance of culture medium at 600 nm” value ([2]; 50 μM) was 0.484. For the same compound, the “Absorbance of culture medium at 600 nm” value ([2]; 100 μM) was 0.557.
